The record followed here is US9334259B2, “Aryloxyacetamide compound and pesticide” (Nippon Soda Co., Ltd., priority 2012, dated 2016).

In the data set the test system is acaricide-resistant adult female Aculops pelekassi. The experiment in a line: Efficacy test against Aculops pelekassi (mandarin orange leaf). Type of data set: in vivo. Conditions: 125 ppm emulsion sprayed. The protocol: Twenty acaricide-resistant adult female Aculops pelekassi acarus were inoculated onto a mandarin orange leaf placed in a Petri dish. Next, an emulsion was prepared having the formula indicated in the aforementioned Preparation example 2. This emulsion was diluted with water to a compound concentration of 125 ppm after which the diluted liquids were sprayed onto the mandarin orange leaf with a rotary spraying tower. The mandarin orange leaf was then placed in a temperature-controlled room at a temperature of 25° C. and a humidity of 65%. The life and death of the adult insects were investigated 3 days after the spraying. The development from eggs laid to adult was investigated 10 days after the spraying.

Regarding `CCC(Oc1cc(Br)c(Cl)c(Br)c1)C(=O)NC(C)(C)c1ncccn1` (centres unmarked) [Compound No. 1-14], the “insect mortality rate after 3 days” value (3 days after spraying) was at least 90%. Also, where the note is “10 days after spraying”, the “insect mortality rate after 10 days” value is on record as at least 90%.
